Data reported in PMC5078040 (Oncotarget, 2016).

How the values were obtained:
[1] = target: T1, RSK4(Kin.Dom.1-N-terminal) (Homo sapiens, UniProt Q9UK32); assay: KinomeScan; type: binding; conditions: 1uM
T1 construct: RSK4(Kin.Dom.1-N-terminal); purchased DiscoveRx KINOMEscan

CAMK2G = target: T2, CAMK2G (Homo sapiens, UniProt Q13555); assay: KinomeScan; type: binding; conditions: 1uM
T2 construct: purchased DiscoveRx KINOMEscan

CAMK2D = target: T3, CAMK2D (Homo sapiens, UniProt Q13557); assay: KinomeScan; type: binding; conditions: 1uM
T3 construct: purchased DiscoveRx KINOMEscan

MLK3 = target: T4, MLK3 (Homo sapiens, UniProt Q16584); assay: KinomeScan; type: binding; conditions: 1uM
T4 construct: purchased DiscoveRx KINOMEscan

MAP4K2 = target: T5, MAP4K2 (Homo sapiens, UniProt Q12851); assay: KinomeScan; type: binding; conditions: 1uM
T5 construct: purchased DiscoveRx KINOMEscan

ALK(C1156Y) = target: T6, ALK(C1156Y) (Homo sapiens, UniProt Q9UM73, C1156Y); assay: KinomeScan; type: binding; conditions: 1uM
T6 construct: purchased DiscoveRx KINOMEscan

Vps34 = target: T7, Vps34 (Homo sapiens, UniProt Q8NEB9); assay: ADP-glo biochemical assay
T7 construct: purchased Invitrogen
Protocol: (§1) The reaction in each tube was started immediately by adding ATP and kept going for an hour under 37°C. After the tube cooled for 5 minutes at room temperature, 5 μL solvent reactions were carried out in a 384-well plate. Then 5 μL of ADP-Glo™ reagent was added into each well to stop the reaction and consume the remaining ADP within 40 minutes. At the end, 10 μL of kinase detection reagent was added into the well and incubated for 30 minutes to produce a luminescence signal. Luminescence signal was measured with an automated plate reader (Perkin-Elmer Envision) and each measurement was performed in triplicate.

RET(V804M) = target: T8, RET(V804M) (Homo sapiens, UniProt P07949, V804M); assay: KinomeScan; type: binding; conditions: 1uM
T8 construct: purchased DiscoveRx KINOMEscan

BRAF(V600E) = target: T9, BRAF(V600E) (Homo sapiens, UniProt P15056, V600E); assay: KinomeScan; type: binding; conditions: 1uM
T9 construct: purchased DiscoveRx KINOMEscan

INSRR = target: T10, INSRR (Homo sapiens, UniProt P14616); assay: KinomeScan; type: binding; conditions: 1uM
T10 construct: purchased DiscoveRx KINOMEscan

HASPIN = target: T11, HASPIN (Homo sapiens, UniProt Q8TF76); assay: KinomeScan; type: binding; conditions: 1uM
T11 construct: purchased DiscoveRx KINOMEscan

S6K1 = target: T12, S6K1 (Homo sapiens, UniProt P23443); assay: KinomeScan; type: binding; conditions: 1uM
T12 construct: purchased DiscoveRx KINOMEscan

CAMKK2 = target: T13, CAMKK2 (Homo sapiens, UniProt Q96RR4); assay: KinomeScan; type: binding; conditions: 1uM
T13 construct: purchased DiscoveRx KINOMEscan

PI3Kγ [2] = target: PI3Kγ (Homo sapiens, UniProt P48736); assay: biochemical
Protocol: as §1

MAP3K2 = target: T14, MAP3K2 (Homo sapiens, UniProt Q9Y2U5); assay: KinomeScan; type: binding; conditions: 1uM
T14 construct: purchased DiscoveRx KINOMEscan

LOK = target: T15, LOK (Homo sapiens, UniProt O94804); assay: KinomeScan; type: binding; conditions: 1uM
T15 construct: purchased DiscoveRx KINOMEscan

HIPK3 = target: T16, HIPK3 (Homo sapiens, UniProt Q9H422); assay: KinomeScan; type: binding; conditions: 1uM
T16 construct: purchased DiscoveRx KINOMEscan

ULK1 = target: T17, ULK1 (Homo sapiens, UniProt O75385); assay: KinomeScan; type: binding; conditions: 1uM
T17 construct: purchased DiscoveRx KINOMEscan

PIK3CA(E545A) = target: T18, PIK3CA(E545A) (Homo sapiens, UniProt P42336, E545A); assay: KinomeScan; type: binding; conditions: 1uM
T18 construct: purchased DiscoveRx KINOMEscan

LRRK2(G2019S) = target: T19, LRRK2(G2019S) (Homo sapiens, UniProt Q5S007, G2019S); assay: KinomeScan; type: binding; conditions: 1uM
T19 construct: purchased DiscoveRx KINOMEscan

RIOK2 = target: T20, RIOK2 (Homo sapiens, UniProt Q9BVS4); assay: KinomeScan; type: binding; conditions: 1uM
T20 construct: purchased DiscoveRx KINOMEscan

CAMK1 = target: T21, CAMK1 (Homo sapiens, UniProt Q14012); assay: KinomeScan; type: binding; conditions: 1uM
T21 construct: purchased DiscoveRx KINOMEscan

EPHB2 = target: T22, EPHB2 (Homo sapiens, UniProt P29323); assay: KinomeScan; type: binding; conditions: 1uM
T22 construct: purchased DiscoveRx KINOMEscan

PAK3 = target: T23, PAK3 (Homo sapiens, UniProt O75914); assay: KinomeScan; type: binding; conditions: 1uM
T23 construct: purchased DiscoveRx KINOMEscan

PI3Kγ [3] = target: PI3Kγ (Mus musculus, UniProt Q9JHG7); assay: cell-based
CSK = target: T24, CSK (Homo sapiens, UniProt P41240); assay: KinomeScan; type: binding; conditions: 1uM
T24 construct: purchased DiscoveRx KINOMEscan

MYO3A = target: T25, MYO3A (Homo sapiens, UniProt Q8NEV4); assay: KinomeScan; type: binding; conditions: 1uM
T25 construct: purchased DiscoveRx KINOMEscan

PIP5K1A = target: T26, PIP5K1A (Homo sapiens, UniProt Q99755); assay: KinomeScan; type: binding; conditions: 1uM
T26 construct: purchased DiscoveRx KINOMEscan

MAP4K3 = target: T27, MAP4K3 (Homo sapiens, UniProt Q8IVH8); assay: KinomeScan; type: binding; conditions: 1uM
T27 construct: purchased DiscoveRx KINOMEscan

CLK3 = target: T28, CLK3 (Homo sapiens, UniProt P49761); assay: KinomeScan; type: binding; conditions: 1uM
T28 construct: purchased DiscoveRx KINOMEscan

ITK = target: T29, ITK (Homo sapiens, UniProt Q08881); assay: KinomeScan; type: binding; conditions: 1uM
T29 construct: purchased DiscoveRx KINOMEscan

FLT3(N841I) = target: T30, FLT3(N841I) (Homo sapiens, UniProt P36888, N841I); assay: KinomeScan; type: binding; conditions: 1uM
T30 construct: purchased DiscoveRx KINOMEscan

MST1R = target: T31, MST1R (Homo sapiens, UniProt Q04912); assay: KinomeScan; type: binding; conditions: 1uM
T31 construct: purchased DiscoveRx KINOMEscan

p38-gamma = target: T32, p38-gamma (Homo sapiens, UniProt P53778); assay: KinomeScan; type: binding; conditions: 1uM
T32 construct: purchased DiscoveRx KINOMEscan

ACVR2B = target: T33, ACVR2B (Homo sapiens, UniProt Q13705); assay: KinomeScan; type: binding; conditions: 1uM
T33 construct: purchased DiscoveRx KINOMEscan

AKT1 = target: T34, AKT1 (Homo sapiens, UniProt P31749); assay: KinomeScan; type: binding; conditions: 1uM
T34 construct: purchased DiscoveRx KINOMEscan

MET(Y1235D) = target: T35, MET(Y1235D) (Homo sapiens, UniProt P08581, Y1235D); assay: KinomeScan; type: binding; conditions: 1uM
T35 construct: purchased DiscoveRx KINOMEscan

PRKD1 = target: T36, PRKD1 (Homo sapiens, UniProt Q15139); assay: KinomeScan; type: binding; conditions: 1uM
T36 construct: purchased DiscoveRx KINOMEscan

PI3Kδ = PI3Kδ (Homo sapiens, UniProt O00329); assay: PI3Ks isoform in cell EC50 assay (AKT phosphorylation, Western Blotting); type: cell-based; set-up: endogenous in cells; host or cells: Raji; conditions: Raji cells, 1μg/ml anti-IgM, Akt phosphorylation at T308; read-out: cellular EC50 PI3K Delta
NEK11 = target: T37, NEK11 (Homo sapiens, UniProt Q8NG66); assay: KinomeScan; type: binding; conditions: 1uM
T37 construct: purchased DiscoveRx KINOMEscan

AURKB = target: T38, AURKB (Homo sapiens, UniProt Q96GD4); assay: KinomeScan; type: binding; conditions: 1uM
T38 construct: purchased DiscoveRx KINOMEscan

TRKC = target: T39, TRKC (Homo sapiens, UniProt Q16288); assay: KinomeScan; type: binding; conditions: 1uM
T39 construct: purchased DiscoveRx KINOMEscan

T17 sequence (O75385 whole entry): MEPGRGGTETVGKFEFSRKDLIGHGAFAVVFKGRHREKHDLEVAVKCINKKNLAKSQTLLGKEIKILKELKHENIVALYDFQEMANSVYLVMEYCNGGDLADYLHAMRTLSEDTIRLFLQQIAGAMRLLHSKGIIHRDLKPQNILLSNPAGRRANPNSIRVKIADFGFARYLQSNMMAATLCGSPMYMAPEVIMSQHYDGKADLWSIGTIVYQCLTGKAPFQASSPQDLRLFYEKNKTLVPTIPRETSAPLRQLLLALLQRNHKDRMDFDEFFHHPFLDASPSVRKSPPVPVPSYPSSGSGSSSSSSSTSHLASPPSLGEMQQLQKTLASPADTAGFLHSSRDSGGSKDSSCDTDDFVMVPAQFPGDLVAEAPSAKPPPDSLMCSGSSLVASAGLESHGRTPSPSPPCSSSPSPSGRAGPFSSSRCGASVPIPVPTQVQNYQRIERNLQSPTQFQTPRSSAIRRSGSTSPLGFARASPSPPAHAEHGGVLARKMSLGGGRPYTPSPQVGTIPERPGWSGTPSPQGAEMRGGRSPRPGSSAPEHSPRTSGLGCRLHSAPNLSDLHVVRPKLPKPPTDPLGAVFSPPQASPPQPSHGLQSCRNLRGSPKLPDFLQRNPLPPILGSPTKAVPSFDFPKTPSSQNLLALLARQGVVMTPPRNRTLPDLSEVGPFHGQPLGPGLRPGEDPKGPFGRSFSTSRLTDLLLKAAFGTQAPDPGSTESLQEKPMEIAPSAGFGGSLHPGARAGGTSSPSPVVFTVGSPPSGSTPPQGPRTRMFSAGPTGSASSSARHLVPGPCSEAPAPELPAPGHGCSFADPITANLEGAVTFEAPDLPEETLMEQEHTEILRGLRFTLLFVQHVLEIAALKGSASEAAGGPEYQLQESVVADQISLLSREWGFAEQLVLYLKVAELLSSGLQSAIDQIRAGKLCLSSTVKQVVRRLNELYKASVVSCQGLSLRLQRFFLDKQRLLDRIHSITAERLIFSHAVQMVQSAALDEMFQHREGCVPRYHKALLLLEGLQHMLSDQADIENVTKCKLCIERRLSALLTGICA
T33 sequence (Q13705 19-512): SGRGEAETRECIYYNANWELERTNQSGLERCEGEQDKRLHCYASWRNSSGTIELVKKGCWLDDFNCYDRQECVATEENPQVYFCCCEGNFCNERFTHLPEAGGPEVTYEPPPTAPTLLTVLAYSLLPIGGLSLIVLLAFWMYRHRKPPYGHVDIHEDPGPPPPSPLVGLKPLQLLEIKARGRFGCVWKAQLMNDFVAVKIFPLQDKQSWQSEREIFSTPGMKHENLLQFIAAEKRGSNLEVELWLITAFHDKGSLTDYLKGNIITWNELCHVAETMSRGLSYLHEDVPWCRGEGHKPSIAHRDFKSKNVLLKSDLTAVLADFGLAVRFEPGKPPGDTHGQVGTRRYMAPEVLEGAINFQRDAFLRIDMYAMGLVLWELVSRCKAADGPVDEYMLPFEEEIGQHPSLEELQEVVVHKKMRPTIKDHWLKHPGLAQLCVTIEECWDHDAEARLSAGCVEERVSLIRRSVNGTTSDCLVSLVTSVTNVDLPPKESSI
T13 sequence (Q96RR4 whole entry): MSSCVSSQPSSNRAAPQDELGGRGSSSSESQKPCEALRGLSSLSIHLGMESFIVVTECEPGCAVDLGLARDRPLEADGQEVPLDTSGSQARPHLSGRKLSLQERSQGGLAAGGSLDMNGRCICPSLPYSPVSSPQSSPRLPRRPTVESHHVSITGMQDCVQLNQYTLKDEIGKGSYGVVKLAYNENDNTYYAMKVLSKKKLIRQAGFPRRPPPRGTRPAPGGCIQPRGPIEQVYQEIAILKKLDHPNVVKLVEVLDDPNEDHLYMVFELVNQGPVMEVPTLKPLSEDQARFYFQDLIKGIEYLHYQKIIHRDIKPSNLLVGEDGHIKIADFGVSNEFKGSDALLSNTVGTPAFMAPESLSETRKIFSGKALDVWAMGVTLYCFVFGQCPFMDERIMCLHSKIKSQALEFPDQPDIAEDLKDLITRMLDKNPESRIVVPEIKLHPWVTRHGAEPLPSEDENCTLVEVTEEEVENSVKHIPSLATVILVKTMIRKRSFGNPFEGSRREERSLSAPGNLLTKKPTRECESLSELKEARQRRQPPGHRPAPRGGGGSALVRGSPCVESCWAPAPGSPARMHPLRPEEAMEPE
T5 sequence (Q12851 whole entry): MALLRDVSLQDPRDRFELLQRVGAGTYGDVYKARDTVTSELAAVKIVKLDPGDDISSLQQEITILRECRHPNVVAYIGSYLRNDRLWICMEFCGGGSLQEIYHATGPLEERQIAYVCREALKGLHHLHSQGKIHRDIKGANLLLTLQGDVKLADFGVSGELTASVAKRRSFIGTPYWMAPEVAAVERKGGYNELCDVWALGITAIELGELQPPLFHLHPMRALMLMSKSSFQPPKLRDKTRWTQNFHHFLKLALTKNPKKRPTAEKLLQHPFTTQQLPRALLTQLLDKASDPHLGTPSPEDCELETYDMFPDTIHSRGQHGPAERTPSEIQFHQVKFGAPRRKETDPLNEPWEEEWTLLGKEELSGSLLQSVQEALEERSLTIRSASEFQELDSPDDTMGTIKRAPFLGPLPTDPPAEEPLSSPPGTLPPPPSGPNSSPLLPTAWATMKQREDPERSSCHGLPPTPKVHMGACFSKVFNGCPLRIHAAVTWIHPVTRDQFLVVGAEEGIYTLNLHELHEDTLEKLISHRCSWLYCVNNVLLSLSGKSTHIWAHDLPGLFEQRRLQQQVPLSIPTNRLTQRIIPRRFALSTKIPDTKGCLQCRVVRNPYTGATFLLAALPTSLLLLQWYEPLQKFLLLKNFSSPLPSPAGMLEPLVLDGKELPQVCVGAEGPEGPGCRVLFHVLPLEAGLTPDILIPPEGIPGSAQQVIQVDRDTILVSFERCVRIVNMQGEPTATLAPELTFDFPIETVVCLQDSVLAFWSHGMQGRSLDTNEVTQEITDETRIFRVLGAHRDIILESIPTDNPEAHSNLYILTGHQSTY
T37 sequence (Q8NG66 whole entry): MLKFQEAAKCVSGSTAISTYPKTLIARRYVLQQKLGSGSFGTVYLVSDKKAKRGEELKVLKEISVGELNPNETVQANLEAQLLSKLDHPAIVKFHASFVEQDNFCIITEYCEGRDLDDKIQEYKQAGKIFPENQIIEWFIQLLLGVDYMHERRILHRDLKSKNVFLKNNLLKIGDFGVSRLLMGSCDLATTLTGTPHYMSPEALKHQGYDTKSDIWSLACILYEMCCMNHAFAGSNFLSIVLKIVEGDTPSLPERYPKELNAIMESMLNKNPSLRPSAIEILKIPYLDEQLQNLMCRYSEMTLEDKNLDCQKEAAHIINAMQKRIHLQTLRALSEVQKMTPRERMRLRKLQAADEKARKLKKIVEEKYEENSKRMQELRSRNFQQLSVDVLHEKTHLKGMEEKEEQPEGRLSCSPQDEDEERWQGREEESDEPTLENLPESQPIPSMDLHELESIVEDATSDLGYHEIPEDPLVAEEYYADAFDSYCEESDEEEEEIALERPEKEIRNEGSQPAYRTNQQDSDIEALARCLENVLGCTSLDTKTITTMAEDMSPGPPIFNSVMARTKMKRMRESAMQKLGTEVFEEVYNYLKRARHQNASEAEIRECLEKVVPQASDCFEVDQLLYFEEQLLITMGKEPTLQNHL
T27 sequence (Q8IVH8 whole entry): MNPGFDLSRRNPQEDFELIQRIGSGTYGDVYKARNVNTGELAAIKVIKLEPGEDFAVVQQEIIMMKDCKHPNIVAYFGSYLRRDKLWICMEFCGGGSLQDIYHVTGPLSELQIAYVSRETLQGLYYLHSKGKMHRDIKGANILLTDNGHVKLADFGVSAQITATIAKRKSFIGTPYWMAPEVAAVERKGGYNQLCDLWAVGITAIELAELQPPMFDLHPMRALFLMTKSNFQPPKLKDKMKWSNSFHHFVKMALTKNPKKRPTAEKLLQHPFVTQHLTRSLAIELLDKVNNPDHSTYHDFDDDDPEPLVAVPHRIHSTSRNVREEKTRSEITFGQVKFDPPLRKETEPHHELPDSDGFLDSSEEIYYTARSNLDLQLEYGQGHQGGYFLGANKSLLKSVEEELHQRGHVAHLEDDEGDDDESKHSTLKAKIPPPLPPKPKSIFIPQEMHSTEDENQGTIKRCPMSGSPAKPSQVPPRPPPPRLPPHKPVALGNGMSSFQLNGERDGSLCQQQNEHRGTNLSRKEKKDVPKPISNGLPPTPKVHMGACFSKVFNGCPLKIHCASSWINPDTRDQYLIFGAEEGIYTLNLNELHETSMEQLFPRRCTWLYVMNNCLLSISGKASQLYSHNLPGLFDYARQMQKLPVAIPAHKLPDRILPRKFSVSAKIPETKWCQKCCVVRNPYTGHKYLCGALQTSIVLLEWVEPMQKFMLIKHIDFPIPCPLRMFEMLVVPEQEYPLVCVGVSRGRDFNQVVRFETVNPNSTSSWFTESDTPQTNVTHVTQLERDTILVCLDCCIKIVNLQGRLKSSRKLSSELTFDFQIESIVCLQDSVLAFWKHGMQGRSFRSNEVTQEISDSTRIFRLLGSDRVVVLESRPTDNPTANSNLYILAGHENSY
T26 sequence (Q99755 whole entry): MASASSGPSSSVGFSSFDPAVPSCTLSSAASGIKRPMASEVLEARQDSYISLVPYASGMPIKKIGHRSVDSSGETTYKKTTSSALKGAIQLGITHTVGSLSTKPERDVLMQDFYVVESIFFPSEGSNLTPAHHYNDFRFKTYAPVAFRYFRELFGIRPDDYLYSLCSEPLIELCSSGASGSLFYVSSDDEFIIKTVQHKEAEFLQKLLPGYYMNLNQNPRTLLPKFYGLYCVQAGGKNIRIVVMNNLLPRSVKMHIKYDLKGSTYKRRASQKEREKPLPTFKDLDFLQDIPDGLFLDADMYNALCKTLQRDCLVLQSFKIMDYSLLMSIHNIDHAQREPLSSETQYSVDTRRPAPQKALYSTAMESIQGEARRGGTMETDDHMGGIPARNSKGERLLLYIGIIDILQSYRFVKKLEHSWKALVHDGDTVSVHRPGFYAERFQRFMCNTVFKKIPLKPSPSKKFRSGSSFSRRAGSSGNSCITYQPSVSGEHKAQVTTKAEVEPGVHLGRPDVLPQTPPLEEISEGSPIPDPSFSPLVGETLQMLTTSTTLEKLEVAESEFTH

Cc1nc(NC(=O)[C@@H](N)C(C)C)sc1-c1cnc(Cl)c(NS(=O)(=O)c2ccccc2)c1 [PI3KD-IN-015]
KinomeScan RSK4(Kin.Dom.1-N-terminal) [1]: 100
KinomeScan CAMK2G (CAMK2G): 100
KinomeScan CAMK2D (CAMK2D): 95
KinomeScan MLK3 (MLK3): 100
KinomeScan MAP4K2 (MAP4K2): 91
KinomeScan ALK(C1156Y) (ALK(C1156Y)): 100
IC50 (Vps34): 280 nM
KinomeScan RET(V804M) (RET(V804M)): 100
KinomeScan BRAF(V600E) (BRAF(V600E)): 100
KinomeScan INSRR (INSRR): 97
KinomeScan HASPIN (HASPIN): 94
KinomeScan S6K1 (S6K1): 100
KinomeScan CAMKK2 (CAMKK2): 96
IC50 (PI3Kγ [2]): 125 nM
KinomeScan MAP3K2 (MAP3K2): 100
KinomeScan LOK (LOK): 99
KinomeScan HIPK3 (HIPK3): 100
KinomeScan ULK1 (ULK1): 74
KinomeScan PIK3CA(E545A) (PIK3CA(E545A)): 5.2
KinomeScan LRRK2(G2019S) (LRRK2(G2019S)): 100
KinomeScan RIOK2 (RIOK2): 72
KinomeScan CAMK1 (CAMK1): 98
KinomeScan EPHB2 (EPHB2): 100
KinomeScan PAK3 (PAK3): 92
EC50 (PI3Kγ [3]): > 3000 nM
KinomeScan CSK (CSK): 90
KinomeScan MYO3A (MYO3A): 94
KinomeScan PIP5K1A (PIP5K1A): 84
KinomeScan MAP4K3 (MAP4K3): 91
KinomeScan CLK3 (CLK3): 100
KinomeScan ITK (ITK): 100
KinomeScan FLT3(N841I) (FLT3(N841I)): 87
KinomeScan MST1R (MST1R): 86
KinomeScan p38-gamma (p38-gamma): 86
KinomeScan ACVR2B (ACVR2B): 100
KinomeScan AKT1 (AKT1): 91
KinomeScan MET(Y1235D) (MET(Y1235D)): 100
KinomeScan PRKD1 (PRKD1): 100
EC50 (PI3Kδ): 13 nM
KinomeScan NEK11 (NEK11): 86
KinomeScan AURKB (AURKB): 100
KinomeScan TRKC (TRKC): 100
